{"source": "patent US20120121720A1", "about": "“Modulation of Beta 2 Adrenergic Receptors by Inhibitors of EGLN3 or pVHL” (priority 2009, published 2012)", "key": {"asthma": {"tested_on": "asthma", "test": "Patient case examples: asthma", "assay_type": "in vivo, human", "experimental": "A person with asthma, wherein symptoms are not improving despite receiving treatment with 250 ug beclomethasone taken in combination with an inhaler containing albuterol (when needed) is begun on DMOG at a dose of 20 mg/kg three times per day. Patient's asthma improves.\nA person with asthma exacerbated by treatment with budesonide and formoterol at a dose per actuation of 160 and 4.5 mcg, respectively. Patient is begun on DMOG at a dose of 100 mg/kg once per day. Patient's asthma improves. EXAMPLE HI\nA person with asthma exacerbated by treatment with fluticasone and salmeterol. Patient is begun on DMOG at a dose of 30 mg/kg twice per day. Patient's asthma improves.\nA person with asthma exacerbated wherein symptoms are not improving despite receiving treatment with albuterol. Patient is begun on DMOG at a dose of 25 mg/kg three times per day. Patient's asthma improves.\nA person with asthma exacerbated by treatment with budesonide and formoterol at a dose per actuation of 150.0 and 5.0 mcg, respectively. Patient is begun on malonic acid compound at a dose of 120 mg/kg once per day. Patient's asthma improves."}, "heart failure": {"tested_on": "heart failure", "test": "Patient case examples: heart failure (ejection fraction, dyspnea)", "assay_type": "in vivo, human", "conditions": "for Ejection fraction / Ejection fraction response: baseline 25%; for Ejection fraction: within one month", "experimental": "The patient is started on nitroglycerin patch (Nitro-bid), 2 inches, twice a day and DMOG at a dose of 100 mg/kg once per day. Ejection fraction improves to 40% within one month.\nThe patient is started on nitroglycerin patch (Nitro-bid), 2 inches, twice a day and DMOG at a dose of 25 mg/kg three times per day. Ejection fraction improves to 42% within one month.\nThe patient is started on intravenous nitroglycerin at 20 μg per minute and DMOG at a dose of 50 mg/kg three times per day. Ejection fraction improves to 42% within one month.\nA person with heart failure remains short of breath despite increasing doses of nitroglycerin."}, "muscle wasting": {"tested_on": "muscle wasting", "test": "Patient case examples: lymphoma and muscle wasting, six minute walk test", "assay_type": "in vivo, human", "experimental": "A person with lymphoma and muscle wasting. Patient is started on carvedilol at 12.5 BID and isosorbide dinitrate at 10 mg POTID. Patient is started on an intravenous formulation of DMOG at a concentration of […]. Patient's strength improves as evidenced by a six minute walk test.\nA person with lymphoma and muscle wasting. Patient is started on alprenolol and isosorbide dinitrate. Patient is started on an intravenous formulation of DMOG at a concentration of 20.0 mg/mL. Patient's strength improves as evidenced by a six minute walk test."}, "hypertension": {"tested_on": "hypertension", "test": "Patient case examples: hypertension", "assay_type": "in vivo, human", "conditions": "for Blood pressure: baseline 180/95 on hydralazine hydrochloride", "experimental": "A person with hypertension and not responding to hydralazine hydrochloride (i.e., blood pressure 180/95). […] Patient is begun on DMOG at a dose of 30 mg/kg twice per day. Patient improves (i.e., blood pressure 160/90).\nThey are started on DMOG at a dose of 30 mg/kg twice per day. Patient improves. No limiting hypertension is noted.\nA person with hypertension is not responding to hydralazine hydrochloride (i.e., blood pressure 180/95). […] Patient is begun on DMOG at a dose of 30 mg/kg twice per day. Patient improves (i.e., blood pressure 160/90)."}, "unstable angina": {"tested_on": "unstable angina", "test": "Patient case examples: unstable angina with nitroglycerin tolerance", "assay_type": "in vivo, human", "conditions": "IV nitroglycerin tolerance over 48 hours", "experimental": "A person with unstable angina on IV nitroglycerin develops tolerance over 48 hours as evidenced by recurrent chest pains despite increasing doses of drug.\nA person with unstable angina on IV nitroglycerin develops tolerance over 48 hours as evidenced by recurrent chest pains despite increasing doses of drug. […] The patient improves."}, "[1]": {"tested_on": "Chronic Obstructive Pulmonary Disease", "test": "Patient case examples: Chronic Obstructive Pulmonary Disease", "assay_type": "in vivo, human", "experimental": "Patient started on DMOG at a dose of 50 mg/kg three times per day. Patient improves as evidenced by improved spirometry. A patient having Chronic Obstructive Pulmonary Disease, receiving supplemental oxygen and treated with salbutamol and prednisone is started on DMOG at a dose of 20 mg/kg three times per day."}, "cystic fibrosis": {"tested_on": "cystic fibrosis", "test": "Patient case examples: cystic fibrosis", "assay_type": "in vivo, human", "experimental": "A person with cystic fibrosis presents with hypoxemia and pulmonary hemorrhage. They are begun on ethyl nitrite 20 parts per million in nitrogen, N-acetylcysteine 50 mg/kg Q 6 hours and ascorbate IV 1 gram Q 6 hours, along with DMOG at a dose of 40 mg/kg three times per day. […] They are discharged on day 7. A person with cystic fibrosis presents with labored breathing and increased sputum production."}, "sickle cell disease": {"tested_on": "sickle cell disease", "test": "Patient case example: sickle cell disease crisis", "assay_type": "in vivo, human", "conditions": "Example XX; two units of blood, 80 ppm inhaled ethyl nitrite and 100 mg/kg DMOG", "experimental": "A person with homozygous sickle cell disease presents in crisis. The patient complains of severe abdominal and chest pain and is somewhat disoriented. They receive two units of blood while being administered 80 ppm inhaled ethyl nitrite and 100 mg/kg of DMOG."}, "pulmonary edema": {"tested_on": "pulmonary edema", "test": "Patient case examples: pulmonary edema", "assay_type": "in vivo, human", "conditions": "over the day", "experimental": "A person presents complaining of shortness of breath. […] An intravenous line is inserted and the patient is started on IV infusion of […] per kilogram per minute nitroglycerin. They are also given an intravenous formulation of DMOG at a concentration of 10.0 mg/ml. Their symptoms improve over the day, during which time their arteriolar PO2 increases from 70 to 85 mm Hg.\nA person presents complaining of shortness of breath. […] The patient is started on intravenous nitroglycerin at 25 μg per minute and DMOG at a dose of 25 mg/kg three times per day. Their symptoms improve over the day, during which time their arteriolar PO2 increases from 60 to 85 mm Hg."}, "impaired sense of smell": {"tested_on": "impaired sense of smell", "test": "Patient case example: impaired sense of smell", "assay_type": "in vivo, human", "conditions": "Example XXIII; after steroidal nasal spray; DMOG nasal spray 1 mg/ml", "experimental": "DMOG is administered via nasal spray in amount 1 mg/ml. Patient sense of smell improves."}, "[2]": {"tested_on": "disorders of EXAMPLES I-XXIV", "conditions": "Examples I-XXIV repeated; peptide 10-100 mg orally once-, twice- or three times-daily"}, "[3]": {"target": "EGLN3 binding to the β2AR (Homo sapiens, UniProt P07550)"}}, "data": [{"compound": "COC(=O)CNC(=O)C(=O)OC", "note": "[DMOG, dimethyloxalylglycine]", "values": [{"measurement": "Patient's asthma", "setting": "asthma; Example I, person not improving on 250 ug beclomethasone + albuterol inhaler, DMOG 20 mg/kg three times per day", "result": "improves"}, {"measurement": "Patient's asthma", "setting": "asthma; Example II, person on budesonide/formoterol 160/4.5 mcg, DMOG 100 mg/kg once per day", "result": "improves"}, {"measurement": "Patient's asthma", "setting": "asthma; Example III, person on fluticasone and salmeterol, DMOG 30 mg/kg twice per day", "result": "improves"}, {"measurement": "Patient's asthma", "setting": "asthma; Example IV, person not improving on albuterol, DMOG 25 mg/kg three times per day", "result": "improves"}, {"measurement": "Ejection fraction", "setting": "heart failure; Example V, on carvedilol, nitroglycerin patch 2 inches twice a day + DMOG 100 mg/kg once per day", "result": 40, "unit": "%"}, {"measurement": "Ejection fraction", "setting": "heart failure; Example VI, on carvedilol 50 mg BID, nitroglycerin patch 2 inches twice a day + DMOG 25 mg/kg three times per day", "result": 42, "unit": "%"}, {"measurement": "Ejection fraction", "setting": "heart failure; Example VII, on carvedilol 25 mg divided BID, intravenous nitroglycerin 20 μg per minute + DMOG 50 mg/kg three times per day", "result": 42, "unit": "%"}, {"measurement": "Patient's strength, six minute walk test", "setting": "muscle wasting; Example IX, on alprenolol and isosorbide dinitrate, intravenous DMOG formulation 20.0 mg/mL", "result": "improves"}, {"measurement": "Patient's strength, six minute walk test", "setting": "muscle wasting; Example VIII, on carvedilol 12.5 BID and isosorbide dinitrate 10 mg, intravenous DMOG formulation 25.0 mg/m", "result": "improves"}, {"measurement": "Blood pressure", "setting": "hypertension; Example X, propranolol, DMOG 30 mg/kg twice per day", "result": "160/90"}, {"measurement": "Hypertension response", "setting": "hypertension; Example XI, person after nitropaste, DMOG 30 mg/kg twice per day", "result": "improves"}, {"measurement": "Blood pressure", "setting": "hypertension; Example XIII, metoprolol, DMOG 30 mg/kg twice per day", "result": "160/90"}, {"measurement": "Response to nitroglycerin after tolerance", "setting": "unstable angina; Example XII, intravenous DMOG formulation 15.0 mg/mL", "result": "responds to nitroglycerin"}, {"measurement": "Patient outcome, unstable angina", "setting": "unstable angina; Example XIV, intravenous DMOG formulation 10.0 mg/ml", "result": "improves"}, {"measurement": "Patient outcome, spirometry", "setting": "[1]; Example XV, after albuterol, DMOG 50 mg/kg three times per day", "result": "improves"}, {"measurement": "Need for supplemental oxygen", "setting": "[1]; Example XVI, on supplemental oxygen, salbutamol and prednisone, DMOG 20 mg/kg three times per day", "result": "no longer requires supplemental oxygen"}, {"measurement": "Sputum production", "setting": "cystic fibrosis; Example XIX, after HNO 10 ppm, DMOG 20 mg/kg three times per day, over two days", "result": "decreases in sputum production"}, {"measurement": "Pulmonary hemorrhage and state of health", "setting": "cystic fibrosis; Example XVIII, ethyl nitrite 20 ppm, N-acetylcysteine 50 mg/kg Q 6 hours, ascorbate IV 1 gram Q 6 hours + DMOG 40 mg/kg three times per day, over three days", "result": "the hemorrhage stops and the patient reverts to normal state of health"}, {"measurement": "Symptoms of sickle cell crisis", "setting": "sickle cell disease", "result": "All symptoms resolve"}, {"measurement": "Symptoms of pulmonary edema", "setting": "pulmonary edema; Example XXI, IV nitroglycerin 0.1 mg per kilogram per minute + intravenous DMOG formulation 10.0 mg/ml", "result": "improve"}, {"measurement": "Arteriolar PO2", "setting": "pulmonary edema; Example XXI, from 70, IV nitroglycerin 0.1 mg per kilogram per minute + intravenous DMOG formulation 10.0 mg/ml", "result": 85, "unit": "mm Hg"}, {"measurement": "Arteriolar PO2", "setting": "pulmonary edema; Example XXII, from 60, intravenous nitroglycerin 25 μg per minute + DMOG 25 mg/kg three times per day", "result": 85, "unit": "mm Hg"}, {"measurement": "Symptoms of pulmonary edema", "setting": "pulmonary edema; Example XXII, intravenous nitroglycerin 25 μg per minute + DMOG 25 mg/kg three times per day", "result": "improve"}, {"measurement": "Sense of smell", "setting": "impaired sense of smell", "result": "improves"}]}, {"compound": "N=O", "note": "[HNO]", "values": [{"measurement": "Symptomatic status", "setting": "cystic fibrosis; Example XIX, HNO 10 ppm in nitrogen", "result": "improvements in their symptomatic status"}]}, {"compound": "N[C@@H](CCC(=O)N[C@@H](CSN=O)C(=O)NCC(=O)O)C(=O)O", "note": "[S-nitrosoglutathione]", "values": [{"measurement": "Dyspnea and angina", "setting": "heart failure; Example XVII, short of breath despite nitroglycerin, S-nitrosoglutathione 0.1 μg/kg/min", "result": "improvement of dyspnea and relief of angina"}]}, {"compound": "CC(C)(C)NCC(O)c1ccc(O)c(CO)c1", "note": "(stereo not drawn) [albuterol]", "values": [{"measurement": "Patient outcome, COPD", "setting": "[1]; Example XV, albuterol before DMOG", "result": "no improvement"}]}, {"compound": "COc1ccccc1OCCNCC(O)COc1cccc2[nH]c3ccccc3c12", "note": "(stereo not drawn) [carvedilol]", "values": [{"measurement": "Ejection fraction response", "setting": "heart failure; Example V, carvedilol before DMOG", "result": "without ejection fraction improving"}, {"measurement": "Ejection fraction response", "setting": "heart failure; Example VI, carvedilol 50 mg BID before DMOG", "result": "without ejection fraction improving"}, {"measurement": "Ejection fraction response", "setting": "heart failure; Example VII, carvedilol 25 mg divided BID before DMOG", "result": "without ejection fraction improving"}]}, {"compound": "O=C(O)CC(=O)O", "note": "[malonic acid compound, malonic acid]", "values": [{"measurement": "Patient's asthma", "setting": "asthma; Example XXIV, on budesonide/formoterol 150.0/5.0 mcg, malonic acid compound 120 mg/kg once per day", "result": "improves"}]}, {"compound": "COCCc1ccc(OCC(O)CNC(C)C)cc1", "note": "(stereo not drawn) [metoprolol]", "values": [{"measurement": "Hypertension response", "setting": "hypertension; Example XIII, metoprolol before DMOG, blood pressure 180/95", "result": "without improvement"}]}, {"compound": "CC(C)NCC(O)COc1cccc2ccccc12", "note": "(stereo not drawn) [propranolol]", "values": [{"measurement": "Hypertension response", "setting": "hypertension; Example X, propranolol before DMOG, blood pressure 180/95", "result": "without improvement"}]}, {"compound": "EAISFLLSLIDRLVLY", "values": [{"measurement": "Patient outcome in each EXAMPLE", "setting": "[2]", "result": "exhibits improvement"}, {"measurement": "Binding of EGLN3 to the β2AR", "setting": "[3]", "result": "inhibits binding"}, {"measurement": "Receptor expression in cells", "setting": "β2AR", "result": "increases receptor expression"}]}]}
